Measurements published in patent US11884675B2, “Heterocyclic compounds as triggering receptor expressed on myeloid cells 2 agonists and methods of use” (AMGEN INC., priority 2020, dated 2024).

Target: hTREM2 (Homo sapiens, UniProt Q9NZC2)
Assay: TREM2 activity by cellular Syk phosphorylation (AlphaScreen/AlphaLISA) in TREM2/DAP12-HEK cells, used for Examples 1-305
Assay type: cell-based
Design: expressed in transfected cells
Conditions: HEK293 Cells
How it was run: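 Phospho-Syk (Tyr525/526) over total Syk quantified by AlphaScreen in lysates of cloned TREM2/DAP12-overexpressing HEK293 cells after 45 min compound treatment at room temperature, 1% final DMSO. Values expressed relative to 100 nM anti-TREM2 antibody (positive) and isotype IgG (negative) controls; curves fitted with 4-parameter logistic model.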

Sequence of hTREM2 (Q9NZC2 19-230): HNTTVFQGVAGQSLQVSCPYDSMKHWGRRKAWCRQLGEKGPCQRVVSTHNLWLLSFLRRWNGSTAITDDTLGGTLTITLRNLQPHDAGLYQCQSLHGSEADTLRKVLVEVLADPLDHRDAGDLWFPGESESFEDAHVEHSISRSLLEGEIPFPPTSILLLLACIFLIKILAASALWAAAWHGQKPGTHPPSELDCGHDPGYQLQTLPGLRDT
Sequence of hTREM2 (O43914 22-113 partner): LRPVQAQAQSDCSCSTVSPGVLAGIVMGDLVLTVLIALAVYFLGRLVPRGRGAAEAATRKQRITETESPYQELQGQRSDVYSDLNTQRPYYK

SMILES	EC50 [nM]	hTREM2 Emax
Cc1ccc(-c2nc([C@@H]3CCO[C@H](c4ccnc(C)c4)C3)nc3nc(C)c(C)cc23)c(F)c1 (single isomer, unassigned) [Example 223]	50 to 500	++++ (Emax>250)
Cc1cc2c(OC[C@H]3C[C@@H](C(F)(F)F)C3)nc(N3CCO[C@@H](c4cnn(C)c4)C3)nc2nc1C [Example 109, 6,7-dimethyl-2-((2S)-2-(1-methyl-1H-pyrazol-4-yl)-4-morpholinyl)-4-((cis-3-(trifluoromethyl)cyclobutyl)methoxy)pyrido[2,3-d]pyrimidine]	3000 to 100000	–
Cc1cc2cc(N3CCO[C@@H](c4cnn(C)c4)C3)nc(-c3ccc(Cl)cc3F)c2nc1C [Example 237, (S)-4-(8-(4-chloro-2-fluorophenyl)-2,3-dimethyl-1,7-naphthyridin-6-yl)-2-(1-methyl-1H-pyrazol-4-yl)morpholine]	3000 to 100000	+++ (Emax>150 and ≤250)
Cc1nc2nc(N3CCO[C@@H](c4cnn(C)c4)C3)nc(C3CCC(C)(C)CC3)c2nc1C [Example 130, 4-(4,4-dimethylcyclohexyl)-6,7-dimethyl-2-((2S)-2-(1-methyl-1H-pyrazol-4-yl)-4-morpholinyl) pteridine]	≤ 50	+ (Emax>45 and ≤100)
Cc1cc([C@H]2CN(c3nc4nc(C)c(C)cc4c([C@H]4C[C@H](C(F)(F)F)C4)n3)CCO2)ccn1 [Example 115, 6,7-dimethyl-2-((2S)-2-(2-methyl-4-pyridinyl)-4-morpholinyl)-4-(trans-3-(trifluoromethyl)cyclobutyl)pyrido[2,3-d]pyrimidine]	≤ 50	++ (Emax>100 and ≤150)
Cc1cc([C@@H]2C[C@@H](c3nc(-c4ccc(F)cc4F)c4ccc(C)nc4n3)CCO2)ccn1 (single isomer, unassigned) [Example 221]	500 to 3000	–
Cc1cc([C@H]2CN(c3nc(-c4ccc(Cl)cc4F)c4ccc(C)nc4n3)CCO2)cnn1 (single isomer, unassigned) [Example 86]	≤ 50	++++ (Emax>250)
Cc1cnc2c(-c3ccc(Cl)cc3F)nc(N3CCO[C@@H](c4cnn(C)c4)C3)nc2n1 [Example 1, 4-(4-chloro-2-fluorophenyl)-7-methyl-2-((2S)-2-(1-methyl-1H-pyrazol-4-yl)-4-morpholinyl) pteridine]	≤ 50	++++ (Emax>250)
Cc1cc2c(-c3ccc(Cl)cc3F)cc(N3CCO[C@@H](c4cnn(C)c4)C3)nc2nc1C [Example 157, 5-(4-chloro-2-fluorophenyl)-2,3-dimethyl-7-((2S)-2-(1-methyl-1H-pyrazol-4-yl)-4-morpholinyl)-1,8-naphthyridine]	≤ 50	++++ (Emax>250)
Cc1ccc2c(n1)nc(N1CCO[C@@H](c3cnn(C4CC4)c3)C1)nc2[C@H]1CC[C@H](C(F)(F)F)CC1 [Example 145, 2-((2S)-2-(1-cyclopropyl-1H-pyrazol-4-yl)-4-morpholinyl)-7-methyl-4-(trans-4-(trifluoromethyl)cyclohexyl)pyrido [2,3-d]pyrimidine]	≤ 50	+ (Emax>45 and ≤100)
Cc1cc([C@@H]2C[C@H](c3cc4nc(C)c(C)nc4c(-c4ccc(Cl)cc4F)n3)CCO2)ccn1 (relative stereo) [Example 217, 5-(4-chloro-2-fluorophenyl)-2,3-dimethyl-7-((2S,4R)-2-(2-methyl-4-pyridinyl)tetrahydro-2H-pyran-4-yl)pyrido [3,4-b]pyrazine]	50 to 500	+++ (Emax>150 and ≤250)
Cc1nc2nc(N3CCO[C@@H](c4cnn(C)c4)C3)nc([C@@H]3CCC(C)(C)C3)c2nc1C [Example 303, (S)-4-(4-((R)-3,3-dimethylcyclopentyl)-6,7-dimethylpteridin-2-yl)-2-(1-methyl-1H-pyrazol-4-yl)morpholine]	50 to 500	++ (Emax>100 and ≤150)
Cc1nc2nc(N3CCO[C@@H](c4cnn(C)c4)C3)nc(N3CC(C(F)F)C3)c2nc1C [Example 269, (S)-4-(4-(3-(difluoromethyl)azetidin-1-yl)-6,7-dimethylpteridin-2-yl)-2-(1-methyl-1H-pyrazol-4-yl)morpholine]	3000 to 100000	+ (Emax>45 and ≤100)
Cc1cc([C@@H]2C[C@@H](c3nc(-c4ccc(Cl)cc4F)c4nc(C)c(C)nc4n3)CCO2)ccn1 [Example 272, 4-(4-chloro-2-fluorophenyl)-6,7-dimethyl-2-((2S,4S)-2-(2-methylpyridin-4-yl)tetrahydro-2H-pyran-4-yl)pteridine]	≤ 50	++++ (Emax>250)
Cc1cc([C@@H]2C[C@@H](c3nc(-c4ccc(F)cc4F)c4nc(C)c(C)nc4n3)CCO2)ccn1 (single isomer, unassigned) [Example 212]	500 to 3000	++++ (Emax>250)
Cc1cnc2c(-c3ccc(F)cc3F)nc(N3CCO[C@@H](c4cnn(C)c4)C3)nc2n1 [Example 6, 4-(2,4-difluorophenyl)-7-methyl-2-((2S)-2-(1-methyl-1H-pyrazol-4-yl)-4-morpholinyl)pteridine]	50 to 500	+++ (Emax>150 and ≤250)
Cc1cc([C@@H]2C[C@H](c3nc(-c4ccc(Cl)cc4F)c4ncc(C)nc4n3)CCO2)ccn1 (single isomer, unassigned) [Example 172]	50 to 500	++++ (Emax>250)
Cc1nc2nc([C@H]3CCO[C@@H](c4cnn(C)c4)C3)cc(-c3ccc(Cl)cc3F)c2nc1C (single isomer, unassigned) [Example 187]	≤ 50	+++ (Emax>150 and ≤250)
CCN1Cc2c(cc(N3CCO[C@@H](c4cnn(C)c4)C3)nc2-c2ccc(Cl)cc2F)C1=O [Example 121, 4-(4-chloro-2-fluorophenyl)-2-ethyl-6-((2S)-2-(1-methyl-1H-pyrazol-4-yl)-4-morpholinyl)-2,3-dihydro-1H-pyrrolo[3,4-c]pyridin-1-one]	50 to 500	++++ (Emax>250)

More lines, now with the values ahead:

EC50 [nM]	hTREM2 Emax	SMILES
3000 to 100000	++ (Emax>100 and ≤150)	Cc1cnc2c(n1)nc(N1CCO[C@@H](c3cnn(C)c3)C1)nc2[C@H]1C[C@@H](C(F)(F)F)C1 [Example 274, (S)-2-(1-methyl-1H-pyrazol-4-yl)-4-(7-methyl-4-((1s,3R)-3-(trifluoromethyl)cyclobutyl)pteridin-2-yl)morpholine]
50 to 500	++++ (Emax>250)	Cc1cnc2cc(N3CCO[C@@H](c4cnn(C)c4)C3)nc(-c3ccc(Cl)cc3F)c2n1 [Example 74, 5-(4-chloro-2-fluorophenyl)-3-methyl-7-((2S)-2-(1-methyl-1H-pyrazol-4-yl)-4-morpholinyl)pyrido[3,4-b]pyrazine]
50 to 500	++ (Emax>100 and ≤150)	Cc1ccc2c(C3CCC(F)(F)CC3)nc(N3CCO[C@@H](c4cnn(C)c4)C3)nc2n1 [Example 141, 4-(4,4-difluorocyclohexyl)-7-methyl-2-((2S)-2-(1-methyl-1H-pyrazol-4-yl)-4-morpholinyl)pyrido [2,3-d]pyrimidine]
≤ 50	+++ (Emax>150 and ≤250)	Cc1cc2c(-c3ccc(F)cc3F)nc(N3CCO[C@@H](c4cnn(C5CC5)c4)C3)nc2nc1C [Example 169, 2-((2S)-2-(1-cyclopropyl-1H-pyrazol-4-yl)-4-morpholinyl)-4-(2,4-difluorophenyl)-6,7-dimethylpyrido [2,3-d]pyrimidine]
50 to 500	++++ (Emax>250)	Cc1cc([C@@H]2CN(c3nc(-c4ccc(Cl)cc4F)c4ccc(C)nc4n3)CCO2)cnn1 (single isomer, unassigned) [Example 87]
50 to 500	+++ (Emax>150 and ≤250)	Cc1ccc2c(-c3ccc(F)cc3F)nc(N3CCO[C@@H](c4cnn(C)c4)C3)nc2n1 [Example 91, 4-(2,4-difluorophenyl)-7-methyl-2-((2S)-2-(1-methyl-1H-pyrazol-4-yl)-4-morpholinyl)pyrido[2,3-d]pyrimidine]
50 to 500	++++ (Emax>250)	Cc1cc([C@@H]2C[C@H](c3nc(-c4ccc(F)cc4F)c4nc(C)c(C)nc4n3)CCO2)ccn1 (single isomer, unassigned) [Example 210]
50 to 500	++++ (Emax>250)	CCn1cc([C@H]2CN(c3cc4nc(C)cnc4c(-c4ccc(Cl)cc4F)n3)CCO2)cn1 [Example 75, 5-(4-chloro-2-fluorophenyl)-7-((2S)-2-(1-ethyl-1H-pyrazol-4-yl)-4-morpholinyl)-2-methylpyrido[3,4-b]pyrazine]
≤ 50	+++ (Emax>150 and ≤250)	Cc1cc([C@H]2C[C@@H](c3nc4nc(C)c(C)nc4c([C@H]4C[C@H](C(F)(F)F)C4)n3)CCO2)ccn1 (single isomer, unassigned) [Example 215]
500 to 3000	+++ (Emax>150 and ≤250)	Cc1ccc2c(-c3ccc(Cl)cc3F)nc(N3CCO[C@H](c4cnc(C)nc4)C3)nc2n1 (single isomer, unassigned) [Example 89]
500 to 3000	+ (Emax>45 and ≤100)	Cc1nc2nc(N3CCO[C@@H](c4cnn(C)c4)C3)nc(N3CCC(C)(C)C3)c2nc1C [Example 72, 4-(3,3-dimethyl-1-pyrrolidinyl)-6,7-dimethyl-2-((2S)-2-(1-methyl-1H-pyrazol-4-yl)-4-morpholinyl)pteridine]
≤ 50	++++ (Emax>250)	Cc1cc2c(-c3ccc(F)cc3F)nc(N3CCO[C@@H](c4cnn(C)c4)C3)nc2nc1C [Example 166, 4-(2,4-difluorophenyl)-6,7-dimethyl-2((2S)-2-(1-methyl-1H-pyrazol-4-yl)-4-morpholinyl) pyrido[2,3-d]pyrimidine]
500 to 3000	+++ (Emax>150 and ≤250)	Cc1ccc(-c2nc([C@@H]3CCO[C@H](c4cnn(C)c4)C3)cc3nc(C)c(C)nc23)c(F)c1 [Example 258, 5-(2-fluoro-4-methylphenyl)-2,3-dimethyl-7-((2S,4R)-2-(1-methyl-1H-pyrazol-4-yl)tetrahydro-2H-pyran-4-yl)pyrido[3,4-b]pyrazine]
